Test results as given in the supplement of paper PMC11208160.

Assay: recombinant UMI read abundance after kanamycin selection (control-corrected) (log10(CPM+1)); higher = more efficient recombination; extreme values may be limits of the assay; sequences stand for … in AGTGCAGAGAAAATCGGCCAGTTTTCTCTGCCTGCAGTCCGCATGCCGTGGGACCCCTTGGGTTCTAACCTGTTGCCTAGATTTATGCAGCGGACTGCCTTTCTCCCAAAGTGATAAACCGG…AGGTTGGTTTCACT; site = the 11-nt donor
In short: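 Under IPTG (0.07 mM) plus kanamycin, or without selection, Escherichia coli carrying a UMI-tagged donor and donor-binding-loop pair library and a target plasmid for the IS621 bridge recombinase were plated in two replicates. Recombinant UMIs were PCR-amplified across the donor–target junction and sequenced. Counts were converted to CPM, averaged over replicates, scaled by control-derived factors and reported as log10(CPM+1).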
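Note: IS621 bridge recombinase in Escherichia coli cells against a fixed T5 target plasmid.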

Sequence | recombinant UMI read abundance (log10)
ATAACGCCATGGACCGGTTTTCCCGGTAATCCGTATTTGAC (site ATAAGGCCTGT) | 0
ATAACGCCATGGACCGGTTTTCCCGGTAATCCGTATTTGAC (site ATAATGCCTGT) | 0
ATAAGACCATGGACCGGTTTTCCCGGTAATCCGTATTTGAC (site ATAAGACCTGT) | 0
ATAAGACCATGGACCGGTTTTCCCGGTAATCCGTATTTGAC (site ATAAGCCCTGT) | 0
ATAAGACCATGGACCGGTTTTCCCGGTAATCCGTATTTGAC (site ATAAGGCCTGT) | 0
ATAAGACCATGGACCGGTTTTCCCGGTAATCCGTATTTGAC (site ATAAGTCCTGT) | 0
ATAAGGCCATGGACCGGTTTTCCCGGTAATCCGTATTTGAC (site AAAAGGCCTGT) | 0
ATAAGGCCATGGACCGGTTTTCCCGGTAATCCGTATTTGAC (site ACAAGGCCTGT) | 0
ATAAGGCCATGGACCGGTTTTCCCGGTAATCCGTATTTGAC (site AGAAGGCCTGT) | 0
ATAAGGCCATGGACCGGTTTTCCCGGTAATCCGTATTTGAC (site ATAAAGCCTGT) | 0
ATAAGGCCATGGACCGGTTTTCCCGGTAATCCGTATTTGAC (site ATAACGCCTGT) | 0.0185
ATAAGGCCATGGACCGGTTTTCCCGGTAATCCGTATTTGAC (site ATAAGACCTGT) | 0
ATAAGGCCATGGACCGGTTTTCCCGGTAATCCGTATTTGAC (site ATAAGCCCTGT) | 0
ATAAGGCCATGGACCGGTTTTCCCGGTAATCCGTATTTGAC (site ATAAGGACTGT) | 0.956
ATAAGGCCATGGACCGGTTTTCCCGGTAATCCGTATTTGAC (site ATAAGGCCTAT) | 0.214
ATAAGGCCATGGACCGGTTTTCCCGGTAATCCGTATTTGAC (site ATAAGGCCTCT) | 0.0671
ATAAGGCCATGGACCGGTTTTCCCGGTAATCCGTATTTGAC (site ATAAGGCCTGA) | 0
ATAAGGCCATGGACCGGTTTTCCCGGTAATCCGTATTTGAC (site ATAAGGCCTGC) | 0.147
ATAAGGCCATGGACCGGTTTTCCCGGTAATCCGTATTTGAC (site ATAAGGCCTGG) | 0
ATAAGGCCATGGACCGGTTTTCCCGGTAATCCGTATTTGAC (site ATAAGGCCTGT) | 0
ATAAGGCCATGGACCGGTTTTCCCGGTAATCCGTATTTGAC (site ATAAGGCCTTT) | 0.131
ATAAGGCCATGGACCGGTTTTCCCGGTAATCCGTATTTGAC (site ATAAGGGCTGT) | 0
ATAAGGCCATGGACCGGTTTTCCCGGTAATCCGTATTTGAC (site ATAAGGTCTGT) | 1.87
ATAAGGCCATGGACCGGTTTTCCCGGTAATCCGTATTTGAC (site ATAAGTCCTGT) | 0
ATAAGGCCATGGACCGGTTTTCCCGGTAATCCGTATTTGAC (site ATAATGCCTGT) | 0

Sequence | recombinant UMI read abundance (log10)
ATAAGGCCATGGACCGGTTTTCCCGGTAATCCGTATTTGAC (site ATACGGCCTGT) | 0
ATAAGGCCATGGACCGGTTTTCCCGGTAATCCGTATTTGAC (site ATAGGGCCTGT) | 0
ATAAGGCCATGGACCGGTTTTCCCGGTAATCCGTATTTGAC (site ATATGGCCTGT) | 0.00516
ATAAGGCCATGGACCGGTTTTCCCGGTAATCCGTATTTGAC (site ATCAGGCCTGT) | 0
ATAAGGCCATGGACCGGTTTTCCCGGTAATCCGTATTTGAC (site ATGAGGCCTGT) | 0
ATAAGGCCATGGACCGGTTTTCCCGGTAATCCGTATTTGAC (site ATTAGGCCTGT) | 0
ATAAGGCCATGGACCGGTTTTCCCGGTAATCCGTATTTGAC (site CTAAGGCCTGT) | 0
ATAAGGCCATGGACCGGTTTTCCCGGTAATCCGTATTTGAC (site GTAAGGCCTGT) | 0
ATAAGGCCATGGACCGGTTTTCCCGGTAATCCGTATTTGAC (site TTAAGGCCTGT) | 0
ATAAGGCCATGGACCGGTTTTCCCGGTAATCCGTATTTGCC (site ATAAGGCCTGA) | 0
ATAAGGCCATGGACCGGTTTTCCCGGTAATCCGTATTTGCC (site ATAAGGCCTGC) | 0
ATAAGGCCATGGACCGGTTTTCCCGGTAATCCGTATTTGCC (site ATAAGGCCTGG) | 1.07
ATAAGGCCATGGACCGGTTTTCCCGGTAATCCGTATTTGCC (site ATAAGGCCTGT) | 0
ATAAGTCCATGGACCGGTTTTCCCGGTAATCCGTATTTGAC (site ATAAGACCTGT) | 0
ATAAGTCCATGGACCGGTTTTCCCGGTAATCCGTATTTGAC (site ATAAGCCCTGT) | 0.569
ATAAGTCCATGGACCGGTTTTCCCGGTAATCCGTATTTGAC (site ATAAGGCCTGT) | 0.787
ATAAGTCCATGGACCGGTTTTCCCGGTAATCCGTATTTGAC (site ATAAGTCCTGT) | 2.13
ATAATCGCATGGACCGGTTTTCCCGGTAATCCGTATTTGGG (site ATAATCGCTCC) | 0.324
ATAGAGCCATGGACCGGTTTTCCCGGTAATCCGTATTTGAA (site ATAGAGCCTTT) | 0.525
ATAGCCTCATGGACCGGTTTTCCCGGTAATCCGTATTTGCG (site ATAGCCTCTCG) | 2.52
ATAGCGACATGGACCGGTTTTCCCGGTAATCCGTATTTGCG (site ATAGCGACTCG) | 2.61
ATAGCTGCATGGACCGGTTTTCCCGGTAATCCGTATTTGTG (site ATAGCTGCTCA) | 1.35
ATAGCTGCATGGACCGGTTTTCCCGGTAATCCGTATTTGTG (site CTAGCTGCTCA) | 0.647
ATAGCTGCATGGACCGGTTTTCCCGGTAATCCGTATTTGTG (site GTAGCTGCTCA) | 0.00767
ATAGCTGCATGGACCGGTTTTCCCGGTAATCCGTATTTGTG (site TTAGCTGCTCA) | 0.0149

Sequence | recombinant UMI read abundance (log10)
ATAGGACCATGGACCGGTTTTCCCGGTAATCCGTATTTGCT (site ATAGGACCTAG) | 0
ATAGTAACATGGACCGGTTTTCCCGGTAATCCGTATTTGAG (site ATAGTAACTCT) | 2.18
ATAGTACCATGGACCGGTTTTCCCGGTAATCCGTATTTGAC (site ATAGTACCTGT) | 0
ATAGTAGCATGGACCGGTTTTCCCGGTAATCCGTATTTGAC (site ATAGTAGCTGT) | 3.06
ATAGTAGCATGGACCGGTTTTCCCGGTAATCCGTATTTGAC (site CTAGTATCTGT) | 0
ATAGTATCATGGACCGGTTTTCCCGGTAATCCGTATTTGAA (site ATAGTATCTTT) | 3.09
ATAGTATCATGGACCGGTTTTCCCGGTAATCCGTATTTGAA (site CTAGTATCTGT) | 0.977
ATATAGGCATGGACCGGTTTTCCCGGTAATCCGTATTTGGC (site ATATAGGCTGC) | 2.39
ATATAGGCATGGACCGGTTTTCCCGGTAATCCGTATTTGGC (site ATCTAGGCTGC) | 1.31
ATATAGGCATGGACCGGTTTTCCCGGTAATCCGTATTTGGC (site ATGTAGGCTGC) | 1.08
ATATAGGCATGGACCGGTTTTCCCGGTAATCCGTATTTGGC (site ATTTAGGCTGC) | 0.00901
ATATATCCATGGACCGGTTTTCCCGGTAATCCGTATTTGGT (site ATATATCCTAC) | 0.648
ATATGCACATGGACCGGTTTTCCCGGTAATCCGTATTTGTA (site ATATGCACTTA) | 2.49
ATATGCACATGGACCGGTTTTCCCGGTAATCCGTATTTGTA (site CTATGCACTTA) | 0.913
ATATGCACATGGACCGGTTTTCCCGGTAATCCGTATTTGTA (site GTATGCACTTA) | 0.909
ATATGCACATGGACCGGTTTTCCCGGTAATCCGTATTTGTA (site TTATGCACTTA) | 1.66
ATATGGACATGGACCGGTTTTCCCGGTAATCCGTATTTGAC (site ATATGGACTGT) | 2.7
ATCAACTCATGGACCGGTTTTCCCGGTAATCCGTATTTGTG (site ATCAACTCTCA) | 2.13
ATCCACGCATGGACCGGTTTTCCCGGTAATCCGTATTTGAG (site ATCCAAGCTCT) | 0.00979
ATCCACGCATGGACCGGTTTTCCCGGTAATCCGTATTTGAG (site ATCCACGCTCT) | 0.817
ATCCACGCATGGACCGGTTTTCCCGGTAATCCGTATTTGAG (site ATCCAGGCTCT) | 0.0164
ATCCACGCATGGACCGGTTTTCCCGGTAATCCGTATTTGAG (site ATCCATGCTCT) | 0.00887
ATCCGAGCATGGACCGGTTTTCCCGGTAATCCGTATTTGAG (site ATCCAAGCTCT) | 0.696
ATCCGAGCATGGACCGGTTTTCCCGGTAATCCGTATTTGAG (site ATCCCAGCTCT) | 0.172
ATCCGAGCATGGACCGGTTTTCCCGGTAATCCGTATTTGAG (site ATCCGAGCTCT) | 0.924
